Test results: patent US12715915B2, “Gout flare prevention methods using IL-1β blockers” (priority 2022, dated 2026)
Entries after “also recorded” stand apart in the source; their conditions may differ. Read-outs that look alike come from different tables or passages of the source.

Key:
IL-1α = molecular target: T1, IL-1α (Homo sapiens, UniProt P01583); conditions: cited from earlier work
T1 sequence (P01583 113-271): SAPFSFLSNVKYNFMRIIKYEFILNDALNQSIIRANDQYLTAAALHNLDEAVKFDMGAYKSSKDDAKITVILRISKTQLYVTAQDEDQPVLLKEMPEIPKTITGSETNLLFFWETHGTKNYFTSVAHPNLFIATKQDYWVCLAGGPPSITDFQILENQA

[1] = tested on: gout patients initiating allopurinol; conditions: cited from earlier work; for risk of gout flares during allopurinol initiation: in vivo
human IL1β = human IL1β (Homo sapiens, UniProt P01584); conditions: blocks interaction with IL-1 receptors; cited from earlier work
[2] = molecular target: IL-1 receptor antagonist (IL-1ra) (Homo sapiens, UniProt P18510); conditions: cited from earlier work
[3] = tested on: adult uncontrolled gout patients; assay: MIRROR-C: open-label trial of canakinumab prophylaxis to prevent gout flares when initiating pegloticase+MTX; assay type: in vivo, human
Excerpt: 86. Pegloticase plus methotrexate (approved by FDA in July 2022) is effective at reducing signs/symptoms of uncontrolled gout. In the pivotal trial (MIRROR RCT) the most common adverse event was gout flares which occurred in 54% of patients at month 1 on combination pegloticase and methotrexate. The purpose of this study is to determine if canakinumab is effective for the prevention of gout flares in subjects scheduled to begin KRYSTEXXA® (KRY) (pegloticase) infusions in combination with methotrexate. The most common adverse event that occurs in patients being treated with KRY and methotrexate are gout flares which occurred in 54% of patients at month 1 in the MIRROR RCT. Herein we use canakinumab pretreatment (without corticosteroids, NSAIDs, or colchicine) to reduce the number of gout flares.
87 Canakinumab is the drug that is tested herein. It is currently approved by the FDA for the treatment of periodic fever syndromes and active systemic juvenile idiopathic arthritis (SJIA). However, Canakinumab is considered to be experimental in this study. Subjects scheduled (by their treating provider) to receive pegloticase (with methotrexate) receive a single 150 mg injection of subcutaneous canakinumab one week prior to the first scheduled pegloticase infusion. The combination of the drugs is experimental. As shown herein,
88. Subjects scheduled (by their treating provider) to receive pegloticase (with methotrexate) receive a single 150 mg injection of subcutaneous canakinumab one week prior to the first scheduled pegloticase infusion. At each infusion, subjects are assessed for gout flares. Canakinumab are provided by the study to subjects without charge. Pegloticase, methotrexate, and other medications are obtained through standard means (patient insurance, patient assistance, etc.) as ordered by treating provider. […] It is assumed that mobilization of gout crystals at the initiation of therapy results in gout flares through the IL-1 inflammasome pathway. A goal of prophylaxis is to reduce the number of flares with initiation. […]
89. […] On the day of KRYSTEXXA® administration (i.e., Day 0), the blood pressure, respiratory rate, temperature, and heart rate of patients are measured and patients receive a first administration of KRYSTEXXA® delivered as an intravenous (i.v.) infusion. Every two weeks thereafter during the study (i.e., Day 14, Day 28, Day 42, Day […], Day 98, Day 112, Day 126, Day 140, Day 154, Day 168; also called Week 2, Week 4, Week 6, Week 8, Week 10, Week 12, Week 14, Week 16, Week 18, Week 20, Week 22, Week 24) the blood pressure, respiratory rate, temperature, and heart rate of patients are measured and patients report any gout flares. […]

Chain of IL-1 receptor antagonist (IL-1ra) (P18510 26-177): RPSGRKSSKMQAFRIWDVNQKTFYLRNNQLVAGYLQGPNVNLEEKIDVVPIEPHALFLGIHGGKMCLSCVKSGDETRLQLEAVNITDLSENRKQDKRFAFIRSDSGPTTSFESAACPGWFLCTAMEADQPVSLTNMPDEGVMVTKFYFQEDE

## canakinumab
IL-1α
  binding to IL-1α: does not bind
[1]
  risk of gout flares during allopurinol initiation: reduces the risk of flares
[1]; listed as Canakinumab
  risk of gout flares during allopurinol initiation: can reduce subsequent flares
[1]; single dose ≥50 mg, initiating allopurinol
  prophylaxis against flares compared to colchicine: superior prophylaxis
Human IL1β
  binding to human IL1β: binds to human IL1β and neutralizes its activity
[2]
  binding to IL-1 receptor antagonist (IL-1ra): does not bind
[3]; canakinumab 150 mg s.c.
  time to resolution of active gout flares after administration: ≤ 48 h
[3]; canakinumab prophylaxis without corticosteroids, initiation of pegloticase with methotrexate
  treated patients in whom gout flares were prevented: 100%
[3]; single 150 mg dose, without CS
  safety of canakinumab prophylaxis with pegloticase+MTX: no new safety signals; also recorded: did not compromise efficacy or safety
[3]; single 150 mg s.c. dose 7 days before first pegloticase infusion, no CS, NSAIDs or colchicine, assessed every 2 wks for 6 mos
  new gout flares after canakinumab prophylaxis: No new gout flares; also recorded: prevented gout flares in all patients
